Reference: patent US11484593B2, “Atropisomers of halogenated tetraphenylbacteriochlorins and chlorins and their use in photodynamic therapy” (LUZITIN, S.A., priority 2015, dated 2022)

Key:
[1] = system: HT-29 (human colon carcinoma) cells; assay: In vitro phototoxicity, resazurin cell viability after irradiation at 749 nm; assay type: cell-based; details: light dose 1 J/cm^2 at 749 nm, 24 h incubation
[2] = Absorption spectra / molar absorption coefficients (Beer-Lambert) in ethanol; assay type: physicochemical; details: for ε/10^3: infrared absorption maximum
[3] = Singlet oxygen quantum yield in ethanol (phosphorescence at 1270 nm, phenalenone reference); assay type: physicochemical; details: aerated ethanol
[4] = photodecomposition quantum yield, aerated methanol:PBS (3:2), 749 nm, 640 mW
[5] = system: CT26 (mouse colon carcinoma) cells; assay: In vitro phototoxicity, resazurin cell viability after irradiation at 749 nm; assay type: cell-based
[6] = Triplet lifetimes by nanosecond laser flash photolysis, excitation at 355 nm; assay type: physicochemical; details: triplet lifetime in aerated ethanol
subcutaneous CT26 tumor = assay: Vascular-PDT of subcutaneous CT26 tumor in BALB/c mice with enriched atropisomer compositions (Example 7); assay type: in vivo; details: nominal 0.7 mg/kg i.v., 15 min later 55 J on 1.33 cm^2
[7] = in ethanol, reference; cited from earlier work
[8] = light dose 1 J/cm^2 at 749 nm, extrapolated from non-linear regression curve
[9] = light dose 1 J/cm^2 at 749 nm, 24 h incubation

Structure (SMILES)	IC50 [1] [µM]	IC90 [1] [µM]	λmax [2] [nm]	ε/10^3 [2] [M^−1 cm^−1]	ΦΔ [3]	ΦPD/10^−6 [4]	IC50 ([5]; light dose 1 J/cm^2, Table 1, extrapolated from non-linear regression curve) [µM]	IC50 [5, 8] [µM]	IC90 [5, 8] [µM]	τT (air) [6] [ns]	IC50 ([5]; light dose 1 J/cm^2, Table 1) [µM]	IC50 [5, 9] [µM]	long-term cures (tumor-free 60 days after the treatment) (subcutaneous CT26 tumor)	median survival time (subcutaneous CT26 tumor) [days]	IC90 [5, 9] [µM]	median survival time shorter than with the LUZ11 sample (subcutaneous CT26 tumor) [days]	singlet oxygen quantum yield ΦΔ (literature value) [7]
CNS(=O)(=O)c1ccc(F)c(-c2c3nc(c(-c4c(F)ccc(S(=O)(=O)NC)c4F)c4ccc([nH]4)c(-c4c(F)ccc(S(=O)(=O)NC)c4F)c4nc(c(-c5c(F)ccc(S(=O)(=O)NC)c5F)c5ccc2[nH]5)CC4)CC3)c1F (single isomer, unassigned) [LUZ11-A]	0.343	1.01	743	126	0.39	15	67.3	67.3	2830	257 ± 7							
CNS(=O)(=O)c1ccc(F)c(-c2c3nc(c(-c4c(F)ccc(S(=O)(=O)NC)c4F)c4ccc([nH]4)c(-c4c(F)ccc(S(=O)(=O)NC)c4F)c4nc(c(-c5c(F)ccc(S(=O)(=O)NC)c5F)c5ccc2[nH]5)CC4)CC3)c1F (single isomer, unassigned) [LUZ11-B]	0.178	0.433	743	137	0.35	15			7.53	296 ± 33	1.46	1.46					
CNS(=O)(=O)c1ccc(F)c(-c2c3nc(c(-c4c(F)ccc(S(=O)(=O)NC)c4F)c4ccc([nH]4)c(-c4c(F)ccc(S(=O)(=O)NC)c4F)c4nc(c(-c5c(F)ccc(S(=O)(=O)NC)c5F)c5ccc2[nH]5)CC4)CC3)c1F [LUZ11]	0.367	0.588										0.871	not possible to obtain long-term cures	20	4.31		
CNS(=O)(=O)c1ccc(F)c(-c2c3nc(c(-c4c(F)ccc(S(=O)(=O)NC)c4F)c4ccc([nH]4)c(-c4c(F)ccc(S(=O)(=O)NC)c4F)c4nc(c(-c5c(F)ccc(S(=O)(=O)NC)c5F)c5ccc2[nH]5)CC4)CC3)c1F [sample X]													absence of long-term cures	18		2	
O=C1C=Cc2cccc3cccc1c23 [phenalenone]																	0.95
